pIC50, pKi: −log10 of the molar value.
How the values were obtained:
[1] = molecular target: glucocorticoid receptor (GR) recombinant ligand binding domain (LBD) (Homo sapiens (Human), UniProt P04150); assay: GR binding fluorescence polarisation (FP) assay; conditions: displacement of fluorescently tagged ligand
Method: Binding of test compounds to the glucocorticoid receptor (GR) is determined using a fluorescence polarisation (FP) assay utilising a recombinant ligand binding domain (LBD) of GR. The test compounds are assessed by their ability to displace a fluorescently tagged ligand and detection of the resulting decrease in fluorescence polarisation.

[2] = test system: induction of TAT by dexamethasone in HepG2 cells; assay: Hep G2 TAT assay (inhibition of dexamethasone-induced TAT); assay type: cell-based, human; conditions: challenge of 100 nM dexamethasone, IC50 converted to Ki by Cheng and Prusoff equation

glucocorticoid receptor (GR) recombinant ligand binding domain (LBD), sequence (P04150 524-758): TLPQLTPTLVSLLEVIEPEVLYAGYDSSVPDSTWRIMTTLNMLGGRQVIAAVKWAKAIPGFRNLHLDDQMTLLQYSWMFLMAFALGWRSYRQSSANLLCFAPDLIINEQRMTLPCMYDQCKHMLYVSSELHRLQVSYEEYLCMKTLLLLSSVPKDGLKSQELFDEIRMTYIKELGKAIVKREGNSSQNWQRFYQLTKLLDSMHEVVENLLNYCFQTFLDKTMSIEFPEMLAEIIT

Row | pIC50 [1] | SMILES | pKi [2]
1 | 8.00 | Cc1cc2c(cnn2-c2ccc(=O)n(C)c2)cc1C1(Cc2ccccc2)CCN(S(=O)(=O)c2cc(F)cc(F)c2)C1 (centres unmarked) [Example 297, 5-(5-(3-benzyl-1-((3,5-difluorophenyl)sulfonyl)pyrrolidin-3-yl)-6-methyl-1H-indazol-1-yl)-1-methylpyridin-2(1H)-one] | 7.44
2 | 7.96 | CS(=O)(=O)N1CCC(Cc2ccccc2)(c2cc3cnn(-c4ccc(F)cc4)c3cc2Cl)C1 (centres unmarked) [Example 222, 5-(3-benzyl-1-(methylsulfonyl)pyrrolidin-3-yl)-6-chloro-1-(4-fluorophenyl)-1H-indazole] | 7.41
3 | 8.44 | Cc1cc2c(cnn2-c2ccc(=O)n(C)c2)cc1C1(Cc2ccccc2)CCN(S(=O)(=O)c2ccc(F)cc2)C1 (centres unmarked) [Example 298, 5-(5-(3-benzyl-1-((4-fluorophenyl)sulfonyl)pyrrolidin-3-yl)-6-methyl-1H-indazol-1-yl)-1-methylpyridin-2(1H)-one] | 7.43
4 | 7.74 | Cc1cc2c(cnn2-c2ccc(=O)n(C)c2)cc1C1(Cc2ccccc2)CCN(C(=O)C(C)(F)F)C1 (centres unmarked) [Example 328, 5-(5-(3-benzyl-1-(2,2-difluoropropanoyl)pyrrolidin-3-yl)-6-methyl-1H-indazol-1-yl)-1-methylpyridin-2(1H)-one] | 6.96
5 | 8.10 | Cc1cc2c(cnn2-c2ccc(F)cc2)cc1C1(Cc2ccccc2)CCN(C)C1 (centres unmarked) [Example 20, 5-(3-benzyl-1-methylpyrrolidin-3-yl)-1-(4-fluorophenyl)-6-methyl-1H-indazole] | 6.63
6 | 8.54 | [2H]C([2H])([2H])n1cc(-n2ncc3cc(C4(Cc5ccccc5)CCN(S(=O)(=O)c5cnn(C)n5)C4)c(C)cc32)ccc1=O (centres unmarked) [Example 261, 5-(5-(3-benzyl-1-((2-methyl-2H-1,2,3-triazol-4-yl)sulfonyl)pyrrolidin-3-yl)-6-methyl-1H-indazol-1-yl)-1-(methyl-d3)pyridin-2(1H)-one] | 7.36
7 | 7.66 | Cc1cc2c(cnn2-c2cnn(C)c2)cc1C1(Cc2ccccc2)CCN(S(=O)(=O)c2ccc(F)c(F)c2)C1 (centres unmarked) [Example 272, 5-(3-benzyl-1-((3,4-difluorophenyl)sulfonyl)pyrrolidin-3-yl)-6-methyl-1-(1-methyl-1H-pyrazol-4-yl)-1H-indazole] | 7.54
8 | 7.70 | Cc1cc2c(cnn2-c2ccc(=O)n(C)c2)cc1C1(Cc2ccccc2)CCN(C(=O)C2CC2)C1 (centres unmarked) [Example 332, 5-(5-(3-benzyl-1-(cyclopropanecarbonyl)pyrrolidin-3-yl)-6-methyl-1H-indazol-1-yl)-1-methylpyridin-2(1H)-one] | 6.80
9 | 6.57 | Cc1cc2c(cnn2-c2ccc(F)cc2)cc1C1(Cc2ccccc2)CCN(S(=O)(=O)c2cncs2)C1 (centres unmarked) [Example 154] | 7.85
10 | 8.06 | Cc1ccc(S(=O)(=O)N2CCC(Cc3ccccc3)(c3cc4cnn(-c5ccc(=O)n(C)c5)c4cc3C)C2)cn1 (centres unmarked) [Example 299, 5-(5-(3-benzyl-1-((6-methylpyridin-3-yl)sulfonyl)pyrrolidin-3-yl)-6-methyl-1H-indazol-1-yl)-1-methylpyridin-2(1H)-one] | 7.32
11 | 8.00 | Cc1cc2c(cnn2-c2ccc(=O)n(C)c2)cc1C1(Cc2ccccc2)CCN(C(=O)c2ccsc2)C1 (centres unmarked) [Example 329, 5-(5-(3-benzyl-1-(thiophene-3-carbonyl)pyrrolidin-3-yl)-6-methyl-1H-indazol-1-yl)-1-methylpyridin-2(1H)-one] | 6.85
12 | 8.06 | Cc1ccc(S(=O)(=O)N2CCC(Cc3ccccc3)(c3cc4cnn(-c5ccc(=O)n(C)c5)c4cc3C)C2)cc1 (centres unmarked) [Example 307, 5-(5-(3-benzyl-1-tosylpyrrolidin-3-yl)-6-methyl-1H-indazol-1-yl)-1-methylpyridin-2(1H)-one] | 7.05
13 | 7.96 | Cc1cc2c(cnn2-c2ccc(=O)n(C)c2)cc1C1(Cc2ccccc2)CCN(S(=O)(=O)c2cccnc2)C1 (centres unmarked) [Example 286, 5-(5-(3-benzyl-1-(pyridin-3-ylsulfonyl)pyrrolidin-3-yl)-6-methyl-1H-indazol-1-yl)-1-methylpyridin-2(1H)-one] | 7.28

More lines, now with the values behind:

Row | SMILES | pIC50 [1] | pKi [2]
14 | CCn1cc(S(=O)(=O)N2CCC(Cc3ccc(F)cc3)(c3cc4cnn(-c5ccc(F)cc5)c4cc3OC)C2)cn1 (centres unmarked) [Example 217, 5-(1-((1-ethyl-1H-pyrazol-4-yl)sulfonyl)-3-(4-fluorobenzyl)pyrrolidin-3-yl)-1-(4-fluorophenyl)-6-methoxy-1H-indazole] | 7.77 | 7.85
15 | Cc1cc2c(cnn2-c2ccc(F)cc2)cc1C1(Cc2ccccc2)CCN(C(=O)c2cncs2)C1 (centres unmarked) [Example 232, (3-benzyl-3-(1-(4-fluorophenyl)-6-methyl-1H-indazol-5-yl)pyrrolidin-1-yl)(thiazol-5-yl)methanone] | 8.00 | 7.43
16 | Cc1cc2c(cnn2-c2ccc(F)cc2)cc1N1CCN(S(=O)(=O)c2cnn(CC3CC3)c2)[C@H](C)C1 [Example 43] | 7.02 | 6.33
17 | Cc1cc2c(cnn2-c2cnn(C(F)F)c2)cc1C1(Cc2ccccc2)CCN(S(=O)(=O)c2cnn(C)n2)C1 (centres unmarked) [Example 255, 5-(3-benzyl-1-((2-methyl-2H-1,2,3-triazol-4-yl)sulfonyl)pyrrolidin-3-yl)-1-(1-(difluoromethyl)-1H-pyrazol-4-yl)-6-methyl-1H-indazole] | 7.57 | 7.36
18 | CCCn1cc(S(=O)(=O)N2CC=C(c3cc4cnn(-c5ccc(F)cc5)c4cc3OC(F)F)CC2)cn1 [Example 144] | 6.58 | 6.74
19 | Cc1cc2c(cnn2-c2cn(C)nc2C)cc1C1(Cc2ccccc2)CCN(S(=O)(=O)c2cnn(C)n2)C1 (centres unmarked) [Example 257, 5-(3-benzyl-1-((2-methyl-2H-1,2,3-triazol-4-yl)sulfonyl)pyrrolidin-3-yl)-1-(1,3-dimethyl-1H-pyrazol-4-yl)-6-methyl-1H-indazole] | 7.28 | 6.66
20 | CCCn1cc(S(=O)(=O)N2CC3CCN(c4cc5cnn(-c6ccc(F)cc6)c5cc4C)C3C2)cn1 (centres unmarked) [Example 91] | 6.64 | 6.47
21 | Cc1cc2c(cnn2-c2ccc(F)cc2)cc1C1(Cc2ccc(C(F)(F)F)cn2)CCN(S(=O)(=O)c2cnn(C)c2)C1 (centres unmarked) [Example 169] | 6.66 | 6.80
22 | CC(=O)N1CCC(S(=O)(=O)N2CCC(Cc3ccccc3)(c3cc4cnn(-c5ccc(F)cc5)c4cc3C)C2)CC1 (centres unmarked) [Example 325, 1-(4-((3-benzyl-3-(1-(4-fluorophenyl)-6-methyl-1H-indazol-5-yl)pyrrolidin-1-yl)sulfonyl)piperidin-1-yl)ethan-1-one] | 7.55 | 6.96
23 | Cc1cc2c(cnn2-c2ccc(=O)n(C)c2)cc1C1(C(C)c2ccccc2)CCN(S(=O)(=O)c2cnn(C)n2)C1 (centres unmarked) [Example 274, 1-methyl-5-(6-methyl-5-(1-((2-methyl-2H-1,2,3-triazol-4-yl)sulfonyl)-3-(1-phenylethyl)pyrrolidin-3-yl)-1H-indazol-1-yl)pyridin-2(1H)-one] | 7.09 | 6.54
24 | Cc1cc2c(cnn2-c2ccc(F)cc2)cc1N1CCN(S(=O)(=O)c2cnn(CC(F)(F)F)c2)C2(CC2)C1 [Example 67] | 7.74 | 7.48
25 | COc1cc2c(cnn2-c2ccc(F)cc2)cc1C1(Cc2ccccc2)CCN(S(=O)(=O)C2CC2)C1 (centres unmarked) [Example 166] | 7.85 | 7.59
